From patent US20240141291A1, “FUNCTIONAL BRAIN REGION-SPECIFIC NEURAL SPHEROIDS AND METHODS OF USE” (THE UNITED STATES OF AMERICA, AS REPRESENTED BY THE …, priority 2021, published 2024)
“Also recorded” adds a separate entry of the source.

Tests used:
Format in all cases: cell-based, human
PFC-like spheroids [1] = test: FLIPR calcium activity with Cal6 dye, control compounds / DAMGO / AD compounds (Example 3); settings: 10 μM DAMGO; for effect on peak count and peak spacing: recording 30-min later, then naloxone
Procedure: (§1) Viruses and dyes: To assess calcium activity, the calcium dye, Cal6 (Molecular Devices), and genetically encoded calcium indicator, GCaMP6f (Addgene, cat #100836-AAV9) were used. Cal6 was used according to manufacturer's instructions and 10 mL of maintenance media was added to each vial. Two hours before activity was recorded, half of the spheroid media was exchanged for media with Cal6. The plates were covered in foil and placed in the incubator at 37° C. during the 2-hour (hr) incubation period. Since all viruses used were adeno-associated viruses (AAV), they were added to the media on day 7 to allow for 2-weeks expression prior to recording or testing. All viruses were added to the media at 2e5 multiplicity of infection (MOI). GCaMP6f infection occurred via an adeno-associated virus serotype 9 (AAV9) expressed under the CAG promoter for expression in both neurons and astrocytes. Designer receptors exclusively activated by designer drugs (DREADDs) viruses were used to stimulate and inhibit neuronal activity within spheroids. Both viruses were retrograde AAVs expressed under the human Synapsin promoter for expression in neurons and fused with an mCherry fluorophore. The DREADDs viruses either inserted the designer receptor hM4D(Gi), an inhibitory G-protein coupled receptor, or hM3D(Gq), a stimulatory G-protein coupled receptor. Clozapine-N-oxide (CNO, Tocris cat #4936) was suspended in dimethyl sulfoxide (DMSO) and used as the designer drug to activate the DREADDs viruses. CNO was tested at 1 and 10 μM, with data reported from the 1 μM concentration.
(§2) Fluorescent Imaging plate Reader (FLIPR): The FLIPR Penta (Molecular Devices) was used to assess calcium fluorescence across the 384-well plate simultaneously and to observe changes after treatment with compounds. The evening before calcium activity was measured, plates were sealed with parafilm and centrifuged at 1485×g for 2-min to get spheroids to the bottom of the well in a centered position. On the day of recording, the plate used for recording was placed in the read plate position inside of the FLIPR following the 2-hour Cal6 incubation at 37° C. Standard filter sets were used for Cal6 imaging with excitation set at 470-495 and emission at 515-575 nm. Fluorescent image reads were taken every 0.6 seconds for all plates, with exposure time of 0.03 and 50% excitation intensity. Recordings from the initial seven plates consisted of 1000 reads and were 10-min recordings with 2.5 gain, while the final two plates consisted of 500 reads (5-min recordings) with a gain of 2. Baseline recordings were taken across all plates and, if applicable, more recordings were obtained 1-, 30-, 60-, and/or 90-min after compound treatment. In between recordings, plates were wrapped in foil and placed back in the incubator at 37° C.
DAMGO was reconstituted in water at a 1 mM concentration and diluted in media to 20 µM such that spheroids would be treated with a final concentration of 10 μM after the half media exchange. Two aspects of OUD were modeled, chronic treatment along with opioid withdrawal. For spheroids subjected to chronic DAMGO treatment, 20 μM DAMGO in maintenance media was added via half media exchange beginning on day 10, with treatments occurring every other day for 10 days, giving a total of five treatments.
384 Pin Tool: A 384 well pin tool (Rexroth) was used to transfer compounds simultaneously to the spheroid plate. Prior to compound transfer, the pin tool went through four wash cycles where pins were rinsed with dimethyl sulfoxide (DMSO), followed by methanol, then deionized (DI) water, to ensure the pins were clean. Compound transfer via the 384 well pin tool occurred after the baseline recordings with the fluorescent imaging plate reader (FLIPR). Here, 60 nL of compound suspended in DMSO was transferred to 60 µL of media in each well, diluting the compounds by 1000-fold and giving a final DMSO concentration of 0.1%.

[2] = tested on: PFC-like and VTA-like spheroids; test: 3D Cell Titer Glo spheroid viability; settings: no DAMGO pre-treatment vs chronic DAMGO vs DAMGO withdrawal
Procedure: 3D Cell Titer Glo: To measure spheroid cell viability across disease models and after compound treatment, the CellTiter-Glo 3D Cell Viability Assay (Promega, cat #G9681) was used according to the manufacturer's instructions. CellTiter-Glo 3D Reagent was thawed overnight at 4° C. and brought to room temperature (RT) for 20-min before use. After the FLIPR assay, 30 μL of CellTiter-Glo 3D Reagent was added to the spheroid plate and was mixed by shaking for 5-min at RT followed by a 25-min incubation period off the shaker at RT (about 25° C.). Luminescence was read using a PHERAstar FSX microplate reader (BMG LabTech) to measure amount of ATP present, indicating metabolically active cells.

VTA-like spheroids [3] = test: Confocal (Phenix Plus) calcium recordings, opioid use disorder model; settings: VTA-like spheroids expressing GCaMP6f; 10 μM DAMGO; day 21
Procedure: (§3) Confocal Imaging: The Opera Phenix Plus High-Content Imaging System (Perkin Elmer) spinning disk confocal was used to record calcium activity from spheroids in individual wells. Prior to recording, the stage was pre-warmed to 37° C., and the carbon dioxide was set to 5%. Recordings were obtained both from spheroids expressing GCaMP6f along with those incubated in Cal6 dye. Recordings were captured with a 20× water immersion objective […] from the bottom of the well, and were obtained at a frame rate of 1.6 frames/sec with 480 frames total, making the recordings 5-min. The protocol was set to record well to well such that recordings were automated but taken from one spheroid at a time before recording from subsequent wells. […]
(§4) For peak detection data obtained from the Phenix Plus confocal microscope, image sequences were stored in and exported from Columbus Image Data Storage and Analysis as single plane TIFFs. […] Prior to peak detection analysis, the T-function, F div F0, in ImageJ was used to obtain calcium signals normalized to background fluorescence. […] The correlation matrix was used to describe how synchronous the calcium activity within a spheroid was, and a synchrony score was measured by calculating the average correlation coefficient across the matrix. […]

PFC-like spheroids [4] = test: as above; settings: PFC-like spheroids expressing GCaMP6f; 10 μM DAMGO; day 21
Procedure: as §3, §4

VTA-like spheroids [5] = test: FLIPR calcium activity with Cal6 dye, control compounds / DAMGO (Example 3); settings: VTA-like spheroids in Cal6 dye; 10 μM DAMGO; day 21
Procedure: as §1, §2
DAMGO was reconstituted in water at a 1 mM concentration and diluted in media to 20 µM such that spheroids would be treated with a final concentration of 10 μM after the half media exchange. Two aspects of OUD were modeled, chronic treatment along with opioid withdrawal. […]
384 Pin Tool: A 384 well pin tool (Rexroth) was used to transfer compounds simultaneously to the spheroid plate. […] Compound transfer via the 384 well pin tool occurred after the baseline recordings with the fluorescent imaging plate reader (FLIPR). […]

SMILES: C[C@@H](NC(=O)[C@@H](N)Cc1ccc(O)cc1)C(=O)NCC(=O)N(C)[C@@H](Cc1ccccc1)C(=O)NCCO [DAMGO, [D-Ala^2, N-MePhe^4, Gly-ol]-enkephalin]
- effect on peak count and peak spacing (PFC-like spheroids [1]; PFC-like chronic DAMGO-treated spheroids): chronic DAMGO-treated spheroids treated with either DMSO or DAMGO showed significant reductions in peak count
- effect on peak count and peak spacing (PFC-like spheroids [1]; PFC-like control spheroids): significant reduction in peak count was observed in control spheroids acutely treated with DAMGO; also recorded: acute DAMGO treatment in control spheroids increased peak spacing
- effect of chronic DAMGO / DAMGO withdrawal on baseline peak count, amplitude, width (FLIPR) (PFC-like spheroids [1]; PFC-like spheroids in Cal6 dye, day 21): peak count was reduced by chronic DAMGO in PFC-like spheroids; also recorded: Peak amplitude was reduced by DAMGO withdrawal in PFC-like spheroids; also recorded: peak width was increased by chronic DAMGO in PFC-like spheroids
- spheroid viability (3D CTG) [2]: spheroid viability was similar
- effect of chronic DAMGO / DAMGO withdrawal on baseline peak count, amplitude, width, synchrony (confocal) (VTA-like spheroids [3]): increased by DAMGO withdrawal in VTA-like spheroids; also recorded: DAMGO withdrawal reduced peak amplitude in VTA-like but not PFC-like spheroids; also recorded: Chronic DAMGO increased peak width in PFC-like but not VTA-like spheroids; also recorded: DAMGO withdrawal did not impact peak width in either spheroid type; also recorded: DAMGO withdrawal reduced synchrony in VTA-like spheroids
- effect of chronic DAMGO / DAMGO withdrawal on baseline peak count, amplitude, width, synchrony (confocal) (PFC-like spheroids [4]): peak count was reduced by chronic DAMGO treatment in PFC-like spheroids; also recorded: synchrony was unaffected in PFC-like spheroids; also recorded: DAMGO withdrawal reduced peak amplitude in VTA-like but not PFC-like spheroids; also recorded: Chronic DAMGO increased peak width in PFC-like but not VTA-like spheroids; also recorded: DAMGO withdrawal did not impact peak width in either spheroid type
- effect of chronic DAMGO / DAMGO withdrawal on baseline peak count, amplitude, width (FLIPR) (VTA-like spheroids [5]): chronic DAMGO treatment increased peak count in VTA-like spheroids; also recorded: unaffected in VTA-like spheroids; also recorded: reduced in VTA-like spheroids
